Where “and” joins values, the source holds several entries; their conditions need not be identical. Identical values can stand only once. Like-named read-outs stand apart in the source and are kept apart here.

For experiment [1], the target named is T1, medaka MTNR1a-like (MTNR1d) (Oryzias latipes, UniProt A0A3B3HMP3). As to the kind of experiment: cAMP-responsive (CRE-luc) reporter gene assay, agonist mode. The note with it: for agonistic activity in medaka MTNR1d: reporter assay without melatonin; for Emax: read-out: RAA (%) MTNR1a-like (relative agonistic activity). It counts as cell-based. The text has this:
(§1) Expression vectors for medaka mtnr genes, (pcDNA-OlMTNR1a, pcDNA-OlMTNR1b, pcDNA-OlMTNR1c and pcDNA-OlMTNR1a-like) were constructed by PCR amplification of the entire protein coding region, using primers which introduced in-frame Kozak sequence[33] at the 5′ end. A cyclic adenosine monophosphate (cAMP)-regulated reporter vector containing the luciferase gene under the control of a cAMP response element upstream of the TATA-like promoter region from the herpes simplex virus thymidine kinase promoter, named pCRE-luc, originated from the Pathway Profiling Luciferase System (Clontech). Hepa-E1 cells, i.e. epithelial-like Nile tilapia hepatocytes, were obtained from the Institute of Physical and Chemical Research (RIKEN) cell bank (Tsukuba, Japan). For MTNR1a, MTNR1b and MTNR1d, stable transfections were performed as described below. Hepa-E1 cells were seeded in 9 cm dishes prior to transfection. Both plasmids, pCRE-luc as well as expression vectors for medaka mtnrs were linearized by […] and transfected with X-tremeGENE 9 (Roche) according to the manufacturer’s instructions. Stably transfected cells were selected with G418. After selection, each colony was collected by pipetting. Sensitivity for cAMP in each clone was tested by forskolin treatment after seeding into 96-well plates with E-RDF medium (Kyokuto, Tokyo, Japan) and supplemented with 5% dextran-charcoal treated fetal bovine serum. After 24 h the cells were collected, and cellular luciferase activities were measured by luminescence assay with the Steady-Glo Assay System Kit (Promega) according to the manufacturer’s instructions. Forskolin-sensitive cell lines derived from co-transfection of pCRE-luc and pcDNA3.1(+) were developed as control lines and named null-CRE-luc. Forskolin-sensitive cell lines derived from co-transfection of pCRE-luc and each pcDNA-OlMTNR1 were selected for by sensitivity for melatonin.
(§2) For MTNR1c, transient transfection was performed as outlined below. The MTNR1c experiment was performed using Hepa-E1 cells in 9 cm dishes, which were transiently transfected by pcDNA-OlMTNR1c (500 ng) and pCRE-luc (5000 ng) by TransIT-X2 Dynamic Delivery System (Mirus) and incubated 24 h before seeding, following the manufacturer’s instructions. Cells derived from a chosen clone or MRNR1c-tranfected cells were seeded at 10^4 cells per well in 96-well luminometer plates. Then, cells were treated with test chemicals in triplicate at four-fold serial dilutions in the presence or absence of melatonin with 6.25 × 10^−7 M forskolin. For testing the antagonistic effect, reagents were mixed with melatonin at 90% effective concentration (EC90). Negative control wells were dosed with media plus 0.1% ethanol. Positive control wells were dosed with 1 μM melatonin. After 24 h, luciferase activities were measured as described above. Concentration-response curves were fitted and the EC50 or IC50 were calculated using sigmoidal fit in GraphPad Prism5. The relative agonistic activity (RAA) of each reagent was expressed as a percentage of the maximal activity for the reporter induction to that of melatonin. The antagonistic index (AI) of each reagent was expressed as a percentage of the maximal inhibition of the reagent. Maximal inhibition was calculated as the quotient of the subtraction of the luminescence for melatonin from the maximal luminescence for the reagent divided by the maximal inhibition of melatonin. When the reagent inhibits the transactivity to the same level of that of the vehicle control (forskolin), the AI equals 100%.

Experiment [2] has as its target T2, medaka MTNR1c (Oryzias latipes, UniProt A0A0D6A8H7). The description is as above. It is filed as cell-based. The settings on record: for RAA (%) MTNR1c (relative agonistic activity) / Emax: maximal activity as percentage of that of melatonin, Hepa-E1 cells, forskolin, ND: not detected; for Emax: read-out: RAA (%) MTNR1c (relative agonistic activity).
Excerpt: as §1, §2

Experiment [3] concerns the target T3, medaka MTNR1b (Oryzias latipes, UniProt A0ACM8R453).
T3 sequence (A0ACM8R453 1-364): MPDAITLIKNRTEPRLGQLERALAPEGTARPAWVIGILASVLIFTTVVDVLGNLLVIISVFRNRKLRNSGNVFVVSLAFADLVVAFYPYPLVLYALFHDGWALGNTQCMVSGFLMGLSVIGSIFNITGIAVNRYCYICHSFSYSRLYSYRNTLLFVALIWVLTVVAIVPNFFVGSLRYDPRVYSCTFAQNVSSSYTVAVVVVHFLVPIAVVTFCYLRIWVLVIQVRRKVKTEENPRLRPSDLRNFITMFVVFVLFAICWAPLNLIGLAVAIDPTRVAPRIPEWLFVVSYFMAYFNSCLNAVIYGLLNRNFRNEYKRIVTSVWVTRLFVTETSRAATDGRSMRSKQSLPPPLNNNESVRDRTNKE
The description is as above. It counts as cell-based. The settings on record: for RAA (%) MTNR1b (relative agonistic activity): maximal activity as percentage of that of melatonin, Hepa-E1 cells, forskolin, ND: not detected.
Excerpt: as §1, §2

Experiment [4] addresses T4, medaka MTNR1a (Oryzias latipes, UniProt H2LVT7). The experiment is described as above. It counts as cell-based. The settings on record: for RAA (%) MTNR1a (relative agonistic activity): maximal activity as percentage of that of melatonin; for agonistic activity in medaka MTNR1a: reporter assay without melatonin.
Excerpt: as §1, §2
A general note: Reporter assays use an easily measured gene product as a stand-in for the process of interest.

The target in experiment [5] is T3, medaka MTNR1b. The experiment is described as follows: cAMP-responsive (CRE-luc) reporter gene assay, antagonist mode with EC90 melatonin. It counts as cell-based. The settings on record: for AI (%) MTNR1b (antagonistic index): maximal inhibition of melatonin (EC90) effect, 100% = forskolin level, ND: not detected.
Excerpt: as §1
(§3) For MTNR1c, transient transfection was performed as outlined below. […] After 24 h, luciferase activities were measured as described above. Concentration-response curves were fitted and the EC50 or IC50 were calculated using sigmoidal fit in GraphPad Prism5. The relative agonistic activity (RAA) of each reagent was expressed as a percentage of the maximal activity for the reporter induction to that of melatonin. The antagonistic index (AI) of each reagent was expressed as a percentage of the maximal inhibition of the reagent. Maximal inhibition was calculated as the quotient of the subtraction of the luminescence for melatonin from the maximal luminescence for the reagent divided by the maximal inhibition of melatonin. […]

The target in experiment [6] is T2, medaka MTNR1c. The description is as above. It counts as cell-based. The settings on record: maximal inhibition of melatonin (EC90) effect; 100% = forskolin level; ND: not detected.
Excerpt: as §1, §3

In experiment [7] the target is T4, medaka MTNR1a. The note with it: maximal inhibition of melatonin (EC90) effect; 100% = forskolin level; ND: not detected.
Experimental: (§4) Hepa-E1 cells were seeded in 9 cm dishes prior to transfection. Both plasmids, pCRE-luc as well as expression vectors for medaka mtnrs were linearized by PCR and transfected with X-tremeGENE 9 (Roche) according to the manufacturer’s instructions. Stably transfected cells were selected with G418. After selection, each colony was collected by pipetting. Sensitivity for cAMP in each clone was tested by forskolin treatment after seeding into 96-well plates with E-RDF medium (Kyokuto, Tokyo, Japan) and supplemented with 5% dextran-charcoal treated fetal bovine serum. After 24 h the cells were collected, and cellular luciferase activities were measured by luminescence assay with the Steady-Glo Assay System Kit (Promega) according to the manufacturer’s instructions. […]
(§5) Cells derived from a chosen clone or MRNR1c-tranfected cells were seeded at 10^4 cells per well in 96-well luminometer plates. […] After 24 h, luciferase activities were measured as described above. Concentration-response curves were fitted and the EC50 or IC50 were calculated using sigmoidal fit in GraphPad Prism5. […] The antagonistic index (AI) of each reagent was expressed as a percentage of the maximal inhibition of the reagent. Maximal inhibition was calculated as the quotient of the subtraction of the luminescence for melatonin from the maximal luminescence for the reagent divided by the maximal inhibition of melatonin. […]
For experiment [8], the target named is T1, medaka MTNR1a-like (MTNR1d). The settings on record: maximal inhibition of melatonin (EC90) effect; 100% = forskolin level; ND: not detected.
Experimental: as §4, §5
The mark [9] stands for this setting: maximal activity as percentage of that of melatonin, Hepa-E1 cells, forskolin, 24 h, ND: not detected.
Setting [10] is: stably transfected Hepa-E1 cells, 6.25 × 10^−7 M forskolin, 24 h, NC: not calculable (low activity, curve did not reach maximum), read-out: Potency (M) MTNR1a-like.
[11] abbreviates: 24 h, listed as 2-Iodomelatonin.
[12] abbreviates: stably transfected Hepa-E1 cells, 6.25 × 10^−7 M forskolin, 24 h, NC: not calculable (low activity, curve did not reach maximum), read-out: Potency (M) MTNR1a.

T1 sequence (A0A3B3HMP3 1-354): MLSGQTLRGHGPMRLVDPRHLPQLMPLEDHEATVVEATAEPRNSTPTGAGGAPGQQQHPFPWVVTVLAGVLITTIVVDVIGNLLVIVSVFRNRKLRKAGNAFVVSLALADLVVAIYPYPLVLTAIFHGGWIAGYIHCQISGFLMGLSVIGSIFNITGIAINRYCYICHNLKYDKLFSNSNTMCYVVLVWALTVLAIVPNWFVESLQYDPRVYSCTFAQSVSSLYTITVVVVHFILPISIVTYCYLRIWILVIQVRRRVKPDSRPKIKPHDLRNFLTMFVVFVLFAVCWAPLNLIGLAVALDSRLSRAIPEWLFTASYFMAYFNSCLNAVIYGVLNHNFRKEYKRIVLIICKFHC
T2 sequence (A0A0D6A8H7 entry or part of it): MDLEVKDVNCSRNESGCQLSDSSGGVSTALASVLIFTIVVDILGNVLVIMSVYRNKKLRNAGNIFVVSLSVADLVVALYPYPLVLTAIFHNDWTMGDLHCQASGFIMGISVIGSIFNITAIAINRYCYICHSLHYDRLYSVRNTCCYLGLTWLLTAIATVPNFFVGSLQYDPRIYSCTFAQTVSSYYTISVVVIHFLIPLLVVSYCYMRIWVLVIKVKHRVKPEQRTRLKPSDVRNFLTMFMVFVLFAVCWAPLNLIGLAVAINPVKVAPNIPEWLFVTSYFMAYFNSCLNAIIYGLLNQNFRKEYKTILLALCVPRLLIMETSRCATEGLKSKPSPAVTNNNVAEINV
T4 sequence (H2LVT7 1-347): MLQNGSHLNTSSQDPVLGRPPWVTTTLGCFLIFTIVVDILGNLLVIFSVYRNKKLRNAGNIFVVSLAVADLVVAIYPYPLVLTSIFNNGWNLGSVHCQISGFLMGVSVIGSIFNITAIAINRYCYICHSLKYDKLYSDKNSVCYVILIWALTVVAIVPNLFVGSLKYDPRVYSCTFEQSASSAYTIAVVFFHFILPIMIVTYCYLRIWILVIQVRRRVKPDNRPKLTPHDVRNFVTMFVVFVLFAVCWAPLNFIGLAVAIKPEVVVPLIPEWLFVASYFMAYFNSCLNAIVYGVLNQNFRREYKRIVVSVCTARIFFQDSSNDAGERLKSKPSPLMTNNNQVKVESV

With `COc1ccc2[nH]c(I)c(CCNC(C)=O)c2c1` [2-Iodo melatonin, 2-Iodomelatonin], the “RAA (%) MTNR1a-like (relative agonistic activity)” value worked out at 69.3 ± 6.8% in experiment [1] (setting [9]) and 69.3% in experiment [1] (maximal activity as percentage of that of melatonin, Hepa-E1 cells, forskolin, 24 h, ND: not detected, listed as 2-Iodomelatonin). The EC50 in experiment [1] (setting [10]) is 4e-10 M; at medaka MTNR1c [2] (transiently transfected Hepa-E1 cells, 6.25 × 10^−7 M forskolin, 24 h, NC: not calculable (low activity, curve did not reach maximum), read-out: Potency (M) MTNR1c), 1.3e-11 M; on medaka MTNR1b [3] (stably transfected Hepa-E1 cells, 6.25 × 10^−7 M forskolin, 24 h, NC: not calculable (low activity, curve did not reach maximum), read-out: Potency (M) MTNR1b) it was 3.9e-11 M; at medaka MTNR1a [4] (setting [12]), 2.7e-11 M. The “RAA (%) MTNR1c (relative agonistic activity)” value at medaka MTNR1c [2] (24 h) worked out at 111.8 ± 3.2%; on medaka MTNR1c [2] (setting [11]) it was 112%. Besides, the “RAA (%) MTNR1b (relative agonistic activity)” value on medaka MTNR1b [3] (24 h) is 101.4 ± 2.8%; on medaka MTNR1b [3] (setting [11]), “equivalent to that of melatonin”. Further, the “RAA (%) MTNR1a (relative agonistic activity)” value is given as 95.8 ± 6.9% on medaka MTNR1a [4] (Hepa-E1 cells, forskolin, 24 h, ND: not detected) and “less than 100%” at medaka MTNR1a [4] (Hepa-E1 cells, forskolin, 24 h, ND: not detected, listed as 2-Iodomelatonin).
As for `CCC(=O)NC1Cc2ccccc2C(c2ccccc2)C1` (stereo not shown) [4P-PDOT], the “RAA (%) MTNR1a-like (relative agonistic activity)” value in experiment [1] (setting [9]) is 68.7% and 68.7 ± 6.4%. The “agonistic activity in medaka MTNR1d” value in experiment [1] was “exhibited agonistic activity”. Also, the EC50 in experiment [1] (setting [10]) was 1.2e-07 M; on medaka MTNR1a [4] (setting [12]) it was 4.7e-09 M. Also, the “agonistic effect on MTNR1c” value on medaka MTNR1c [2] (reporter assay without melatonin) is “no agonistic effects”. Moreover, at medaka MTNR1a [4], the “agonistic activity in medaka MTNR1a” value is listed as “exhibited agonistic activity”. On medaka MTNR1b [5], the “AI (%) MTNR1b (antagonistic index)” value is 68.3% and 68.3 ± 8.0%. For the same molecule, the IC50 on medaka MTNR1b [5] (with EC90 melatonin and forskolin, Hepa-E1 cells, 24 h, NC: not calculable, read-out: Potency (M) MTNR1b, antagonist) was 1.9e-07 M.
For the molecule `CC(=O)NCCc1c(Cc2ccccc2)[nH]c2ccccc12` [Luzindole], the EC50 is > 1e-06 M in experiment [1] (MTNR1d (MTNR1a-like) transfected Hepa-E1 cells, cAMP-responsive reporter, read-out: EC50 MTNR1d); > 1e-06 M on medaka MTNR1c [2] (MTNR1c-transfected Hepa-E1 cells, cAMP-responsive reporter, read-out: EC50 MTNR1c); 3.3e-07 M on medaka MTNR1a [4] (setting [12]). Besides, the Emax in experiment [1] (setting [9]) turned out to be 83.1%; on medaka MTNR1c [2] (24 h, 24 h), 118%. The “agonistic activity in medaka MTNR1d” value in experiment [1] was “exhibited agonistic activity”. On medaka MTNR1c [2] (24 h, 1440 min), the “RAA (%) MTNR1c (relative agonistic activity)” value was 117.6 ± 11.5%. Besides, the “RAA (%) MTNR1a (relative agonistic activity)” value on medaka MTNR1a [4] (Hepa-E1 cells, forskolin, 24 h, ND: not detected, 1440 min) is 68.2 ± 3.8%; on medaka MTNR1a [4] (Hepa-E1 cells, forskolin, 24 h, ND: not detected, listed as luzindole, 1440 min), “less than 100%”. Moreover, the “agonistic activity in medaka MTNR1a” value on medaka MTNR1a [4] was “exhibited agonistic activity”. The “AI (%) MTNR1c (antagonistic index)” value on medaka MTNR1c [6] is reported as “did not exhibit inhibition”. Further, the “AI (%) MTNR1b (antagonistic index)” value on medaka MTNR1b [5] is “did not exhibit inhibition”. In addition, the “AI (%) MTNR1a (antagonistic index)” value on medaka MTNR1a [7] was “did not exhibit inhibition”. Moreover, in experiment [8], the “AI (%) MTNR1a-like (antagonistic index)” value was “did not exhibit inhibition”.
As to `COc1ccc2[nH]cc(CCNC(C)=O)c2c1` [Melatonin, N-acetyl-5-methoxytryptamine], the EC50 was 2.2e-08 M in experiment [1], 6.2e-11 M at medaka MTNR1c [2], 1.9e-09 M on medaka MTNR1b [3] and 4.8e-10 M at medaka MTNR1a [4]. Besides, the Emax in experiment [1] (24 h) was found to be 100 ± 2.9%; at medaka MTNR1c [2] (24 h, 24 h), 100 ± 1.8%; on medaka MTNR1b [3] (24 h, read-out: RAA (%) MTNR1b (relative agonistic activity)), 100 ± 4.4%; on medaka MTNR1a [4] (24 h, read-out: RAA (%) MTNR1a (relative agonistic activity), maximal activity as percentage of that of melatonin, Hepa-E1 cells, forskolin, 24 h, ND: not detected), 100 ± 3.8%. Further, the “potency for melatonin of MTNR1c compared with MTNR1d/MTNR1a-like” value on medaka MTNR1c [2] (ratio of potencies between subtypes) is “more than three hundred-fold”.

The record behind these values is publication PMC6602942, “Vertebrates originally possess four functional subtypes of G protein-coupled melatonin receptor” (Scientific Reports, 2019).
